Experimental data: publication PMC11876601 (Molecular Systems Biology, 2025)
Values joined by “and” are separate entries in the source; they are usually repeats but may differ in a detail not shown here. Equal entries are not always repeated. Where two headings read alike, the source gives them in different places.

What was measured:
CDK5 = tested on: CDK5; design: method as in Klaeger et al. (2017); details: lysate 4 cell line mix (Colo205, K-562, MV-4-11, and SK-N-BE(2)), Kinobeads y, ref Klaeger et al. (2017); cited from earlier work
MAP2K5 = tested on: MAP2K5; design: method as in Klaeger et al. (2017); details: lysate 4 cell line mix (Colo205, K-562, MV-4-11, and SK-N-BE(2)), Kinobeads y, ref Klaeger et al. (2017); cited from earlier work
FGFR3;FGFR4 = tested on: FGFR3;FGFR4; design: method as in Reinecke et al. (2023); details: FGFR3;FGFR4, 5 cell line mix lysate, Kinobeads ε, ref Reinecke et al. (2023), cited from earlier work
CAMK2B = molecular target: CAMK2B; design: method as in Reinecke et al. (2023); details: 5 cell line mix lysate, Kinobeads ε, ref Reinecke et al. (2023), cited from earlier work
MAPK9 = tested on: MAPK9; design: method as in Reinecke et al. (2023); details: MAPK9, 5 cell line mix lysate, Kinobeads ε, ref Reinecke et al. (2023), cited from earlier work
PDO B250 = assay: PDO viability assay (CellTiter-Glo, 72 h); format: cell-based, human; details: for pEC50: single replicates R1-R8
Experimental: (§1) Primary patient-derived PDAC organoid (PDO) experiments were performed in the laboratories of Prof. Maximilian Reichert (University Hospital of the TU Munich, Germany, PDO set 1: B250, B535, B678) and Prof. Jens T. Siveke (University Hospital Essen, Germany; PDO set 2: UME008, UME012, UME051, UME053, UME060, UME061). PDOs were generated from surgical resection, EUS-guided fine needle biopsy (EUS-FNB), or ascites (Appendix Table S2). Surgical specimens were first minced with a sterile scalpel and subsequently washed with Anti-Anti solution and washing medium (PDO set 1), or vice versa (PDO set 2; Appendix Table S3). Biopsy samples were directly washed with an Anti-Anti solution and washing medium. Samples were digested using 1 ml of digestion medium at 37 °C while shaking, and the enzymatic reaction was stopped by adding 15 ml of washing medium (Appendix Table S3). If samples of PDO set 1 were blood-stained, tissue pellets were first incubated with ACK lysing buffer/red blood cells lysis buffer (Thermo Fisher Scientific) for 5 min and then digested using TrypLE (Thermo Fisher Scientific). The reversed procedure was applied for blood-stained samples of PDO set 2. For PDO generation from ascites, the material was first spun down at 500 × g for 5 min. Then, washing medium was added and the suspension was centrifuged at 300 × g for 5 min. If the pellet was blood-stained, ACK lysis buffer was added and incubated at room temperature.
(§2) For viability assays in PDOs, confluent organoids were removed from medium, and Matrigel was dissolved by adding 200 μl (PDO set 1) or 2 ml (PDO set 2) of Cell Recovery Solution (Corning), and additionally 500 μl of DPBS (PDO set 1 only). Samples were transferred into a falcon and incubated on ice for 30 min, followed by centrifugation at 300 × g at 4 °C for 5 min (after adding 10 ml washing medium for PDO set 2). Subsequently, TrypLE Express Enzyme (Thermo Fisher) was added to cell pellets and incubated for 2 × 5 min at 37 °C. The enzymatic reaction was quenched by DPBS (PDO set 1) or washing medium (PDO set 2), and samples were washed by centrifugation at 300 × g at 4 °C for 5 min. Five hundred cells/well were seeded in 384-well plates (Corning) in 50 μl of PDO medium containing 10% Matrigel. To allow PDO generation, cells were incubated for 4 days at 37 °C and 5% CO2. […] Experiments were pipetted manually (PDO set 1) or automatically using a TECAN D300e Digital Dispenser (HP; PDO set 2). Treatments were performed in eight replicates, except for PDO PPES045 (quadruplicates). After 72 h, cell viability was measured using the CellTiter-Glo Luminescent Cell Viability Assay (Promega) diluted 1:5 in the final volume of the well. After 20 min of incubation at room temperature under gentle shaking, the acquisition was performed in the microplate reader VantaSTAR (BMG Labtech) using 3000 gain for the amplification measurement of a detected signal (PDO set 1) or the Spark Multimode microplate reader (TECAN) at 800 ms integration time (PDO set 2).

PDO B678 = assay: PDO viability assay (CellTiter-Glo, 72 h); format: cell-based, human
Experimental: as §1, §2

PDO UME008 = assay: PDO viability assay (CellTiter-Glo, 72 h); format: cell-based, human;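 as to Curve top: fraction of plate-wise median vehicle signal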
Experimental: as §1, §2

PDO B535 = assay: PDO viability assay (CellTiter-Glo, 72 h); format: cell-based, human; details: for pEC50: single replicates R1-R8
Experimental: as §1, §2

[1] = tested on: nine PDAC patient-derived organoids (PDOs); assay: PDO viability assay (CellTiter-Glo, 72 h), panel; format: cell-based; details: Homo sapiens; range among the nine PDOs; read-out: EC50 (monotherapy)
Experimental: Primary patient-derived PDAC organoid (PDO) experiments were performed in the laboratories of Prof. Maximilian Reichert (University Hospital of the TU Munich, Germany, PDO set 1: B250, B535, B678) and Prof. Jens T. Siveke (University Hospital Essen, Germany; PDO set 2: UME008, UME012, UME051, UME053, UME060, UME061). PDOs were generated from surgical resection, EUS-guided fine needle biopsy (EUS-FNB), or ascites (Appendix Table S2). Surgical specimens were first minced with a sterile scalpel and subsequently washed with Anti-Anti solution and washing medium (PDO set 1), or vice versa (PDO set 2; Appendix Table S3). Biopsy samples were directly washed with an Anti-Anti solution and washing medium. Samples were digested using 1 ml of digestion medium at 37 °C while shaking, and the enzymatic reaction was stopped by adding 15 ml of washing medium (Appendix Table S3). […]
For viability assays in PDOs, confluent organoids were removed from medium, and Matrigel was dissolved by adding 200 μl (PDO set 1) or 2 ml (PDO set 2) of Cell Recovery Solution (Corning), and additionally 500 μl of DPBS (PDO set 1 only). […] After 72 h, cell viability was measured using the CellTiter-Glo Luminescent Cell Viability Assay (Promega) diluted 1:5 in the final volume of the well. […]

[2] = Experiment GEM (GEM alone), single replicates R1-R8, read-out: EC50
[3] = Experiment GEM+ATRi_dose1 (ATRi = Elimusertib)
[4] = Experiment GEM+ATRi_dose1 (ATRi = Elimusertib), single replicates R1-R8, read-out: EC50
[5] = Homo sapiens, Experiment GEM (GEM alone), mean of replicates, read-out: EC50 mean
[6] = Homo sapiens, Experiment GEM+ATRi_dose1 (ATRi = Elimusertib), mean of replicates, read-out: EC50 mean
[7] = Homo sapiens, Experiment GEM+ATRi_dose2 (ATRi = Elimusertib), mean of replicates, read-out: EC50 mean
[8] = Homo sapiens, GEM alone, read-out: EC50 mean
[9] = Homo sapiens, Experiment GEM+ATRi_dose3 (ATRi = Elimusertib), mean of replicates, read-out: EC50 mean
[10] = PDO UME008, GEM + Elimusertib (ATRi) dose1, per replicate
[11] = PDO UME008, GEM + Elimusertib (ATRi) dose2, per replicate
[12] = PDO UME008, GEM + Elimusertib (ATRi) dose3, per replicate
[13] = PDO UME008, GEM alone, per replicate

C[C@]12O[C@H](C[C@]1(O)CO)n1c3ccccc3c3c4c(c5c6ccccc6n2c5c31)CNC4=O [Lestaurtinib]
EC50 (CDK5): […] | EC50 (MAP2K5): 2050 nM

COc1cc(N2CCC(N3CCN(C)CC3)CC2)ccc1Nc1ncc(Cl)c(Nc2ccccc2P(C)(C)=O)n1 [Brigatinib]
EC50 (FGFR3;FGFR4): 617 nM | pKDapp (FGFR3;FGFR4): 6.21 | Kd (FGFR3;FGFR4; read-out: KDapp): 617 nM | Kd (CAMK2B; read-out: KDapp): 48.4 nM | EC50 (CAMK2B): 323 nM | pKDapp (CAMK2B): 7.32 | EC50 (MAPK9): 2110 nM | pKDapp (MAPK9): 5.83 | Kd (MAPK9; read-out: KDapp): 1480 nM

Nc1ccn([C@@H]2O[C@H](CO)[C@@H](O)C2(F)F)c(=O)n1 [GEM, Gemcitabine]
pEC50 (PDO B250; Experiment GEM (GEM alone)): 6.73 and 6.37 and 6.71 and 6.62 and 6.75 and 6.40 and 6.58 and 6.41 | EC50 (PDO B250; [2]): 185 nM and 427 nM and 194 nM and 239 nM and 177 nM and 398 nM and 263 nM and 393 nM | pEC50 (PDO B250; [3]): 6.29 and 6.41 and 6.85 and 6.58 and 6.87 and 7.26 and 6.73 and 6.74 | EC50 (PDO B250; [4]): 516 nM and 389 nM and 140 nM and 262 nM and 135 nM and 54.9 nM and 185 nM and 183 nM | EC50 (PDO B250; [5]): 284 nM | EC50 (PDO B250; [6]): 233 nM | EC50 (PDO B250; [7]): 265 nM | EC50 (PDO B250; [8]): 284 nM | pEC50 (PDO B678; Experiment GEM+ATRi_dose1 (ATRi = Elimusertib), single replicates R1-R8): 6.49 and 6.68 and 7.12 and 6.42 and 6.56 and 6.26 | EC50 (PDO B678; [4]): 321 nM and 209 nM and 76.6 nM and 382 nM and 273 nM and 548 nM and 379 nM | EC50 (PDO B678; [5]): 247 nM | EC50 (PDO B678; [6]): 313 nM | EC50 (PDO B678; [7]): 156 nM | EC50 (PDO B678; [9]): 209 nM | EC50 (PDO B678; [8]): 247 nM | EC50 (PDO UME008; Homo sapiens, PDO UME008, GEM + Elimusertib (ATRi) dose1, mean of replicates, read-out: EC50 mean): 5.72 nM | EC50 (PDO UME008; Homo sapiens, PDO UME008, GEM + Elimusertib (ATRi) dose1, per replicate, read-out: EC50): 5.99 nM | EC50 (PDO UME008; Homo sapiens, PDO UME008, GEM + Elimusertib (ATRi) dose1, per replicate, read-out: pEC50 (converted)): 6.03 nM | EC50 (PDO UME008; Homo sapiens, PDO UME008, GEM alone, mean of replicates, read-out: EC50 mean): 26.4 nM | EC50 (PDO UME008; Homo sapiens, PDO UME008, GEM alone, read-out: EC50 mean): 26.4 nM | EC50 (PDO UME008; Homo sapiens, SET-2, PDO UME008 (PDO set 2), Experiment GEM (GEM alone), mean of replicates, read-out: EC50 mean): 26.4 nM | EC50 (PDO UME008; Homo sapiens, SET-2, PDO UME008 (PDO set 2), Experiment GEM (GEM alone), single replicates, read-out: EC50): 35.3 nM | EC50 (PDO UME008; Homo sapiens, SET-2, PDO UME008 (PDO set 2), Experiment GEM (GEM alone), single replicates, read-out: pEC50 (converted)): 35.5 nM | EC50 (PDO UME008; Homo sapiens, SET-2, PDO UME008 (PDO set 2), Experiment GEM+ATRi_dose1 (ATRi = Elimusertib), mean of replicates, read-out: EC50 mean): 5.72 nM | EC50 (PDO UME008; Homo sapiens, SET-2, PDO UME008 (PDO set 2), Experiment GEM+ATRi_dose1 (ATRi = Elimusertib), single replicates, read-out: EC50): 4.47 nM | EC50 (PDO UME008; Homo sapiens, SET-2, PDO UME008 (PDO set 2), Experiment GEM+ATRi_dose1 (ATRi = Elimusertib), single replicates, read-out: pEC50 (converted)): 4.47 nM | Curve slope (PDO UME008; [10]): 0.15 and 0.09 and 0.06 and 0.14 and 0.13 and 0.10 and 0.08 | Curve top (PDO UME008; [10]): 0.83 and 1.39 and 1.43 and 1.58 | pEC50 (PDO UME008; [10]): 8.33 and 8.31 and 8.10 and 8.30 and 8.17 | EC50 (PDO UME008; PDO UME008, GEM + Elimusertib (ATRi) dose1, per replicate, read-out: EC50): 4.68 nM and 4.87 nM and 6.08 nM and 7.93 nM and 4.97 nM and 6.77 nM | Curve slope (PDO UME008; [11]): 0.07 and 0.08 and 0.13 and 0.0742 and 0.12 | Curve top (PDO UME008; [11]): 1.01 and 1.56 and 1.34 and 1.60 and 1.61 and 1.89 | pEC50 (PDO UME008; [11]): 8.24 and 8.33 and 8.77 | EC50 (PDO UME008; PDO UME008, GEM + Elimusertib (ATRi) dose2, per replicate, read-out: EC50): 5.77 nM and 3.11 nM and 4.73 nM and 1.69 nM | Curve slope (PDO UME008; [12]): 0.10 and 0.07 and 0.08 and 0.0752 and 0.11 and 0.09 | Curve top (PDO UME008; [12]): 1.25 and 0.88 and 1.26 | pEC50 (PDO UME008; [12]): 8.27 and 8.67 and 8.63 and 8.23 and 8.28 | EC50 (PDO UME008; PDO UME008, GEM + Elimusertib (ATRi) dose3, per replicate, read-out: EC50): 2.48 nM and 5.32 nM and 2.13 nM and 3.3 nM and 2.33 nM and 5.9 nM and 5.31 nM | Curve slope (PDO UME008; [13]): 0.43 and 0.44 and 0.47 and 0.36 and 0.39 | Curve top (PDO UME008; [13]): 0.95 and 1.46 | pEC50 (PDO UME008; [13]): 7.56 and 8.15 and 7.44 and 7.69 and 7.32 and 8.00 | EC50 (PDO UME008; PDO UME008, GEM alone, per replicate, read-out: EC50): 27.4 nM and 7.09 nM and 36.6 nM and 20.4 nM and 48 nM and 10.1 nM | pEC50 (PDO B535; Experiment GEM (GEM alone)): 8.39 and 8.78 and 8.35 and 8.91 | EC50 (PDO B535; [2]): 4.05 nM and 1.64 nM and 2.44 nM and 4.43 nM and 1.23 nM | pEC50 (PDO B535; [3]): 8.24 and 8.20 and 8.63 and 8.99 and 8.75 and 8.16 | EC50 (PDO B535; [4]): 5.81 nM and 6.33 nM and 3.06 nM and 2.33 nM and 1.02 nM and 1.78 nM and 6.97 nM | pEC50 (PDO B535; Experiment GEM+ATRi_dose3 (ATRi = Elimusertib)): 9.08 and 8.91 and 9.48 and 9.75 and 9.91 and 9.06 | EC50 (PDO B535; [6]): 3.9 nM | EC50 (PDO B535; [9]): 0.59 nM | EC50 [1]: 3 to 285 nM
